Test results from patent US20250041272A1, “COMPOSITIONS AND METHODS FOR TREATING CANCER VIA PTP1B INHIBITION” (priority 2021, published 2025).

How the values were obtained:
Format in all cases: cell-based, mouse
[1] = tested on: Stat1 phosphorylation and MyD88 in macrophages; assay: Transwell co-culture of M1 induced macrophages with tumor cells plus inhibitors (Western blot, qRT-PCR); conditions: 24 hours
Method: Peritoneal macrophage isolation and culture. Peritoneal macrophages were done as described previously(65) from 8-week-old C57BL/6J mice (randomized, both male and female). PBS (Gibco) was injected in the mural peritoneal cavity to release the macrophages. After recovering, cells were centrifuged at 1200 rpm for 5 minutes, resuspended in DMEM high glucose, 10% FBS, 1% penicillin-streptomycin (Gibco) and plated. 2 hours after the last step, cells were washed with PBS and maintained in DMEM/F12 supplemented with 10% FBS, 1% penicillin-streptomycin and 20 ng/ml of M-CSF (Prospec) for 2 days. Macrophages were treated for 24 hours with 50 ng/ml LPS (Sigma Millipore), 100 ng/ml IFNγ (BioLegend), 300 ng/ml PAM3CSK4 (InvivoGen), 107 cells/ml heat killed Listeria Monocytogenes (HKLM) (InvivoGen), 100 ng/ml Flagellin Salmonella typhimurium standard (InvivoGen), 10 ng/ml FSL1 (InvivoGen), 2.5 ug/ml ssRNA40 (InvivoGen), 2.5 ug/ml CL 075 (Tocris), 5 μM ODN1826, 50 μM Fludarabine (SelleckChem), 50 nM Momelotinib (SelleckChem), 5 μM BVT948 (Sigma Millipore), 200 μM PTP1b inhibitor III (Santa Cruz Biotechnology Inc.), 5 μM NSC87877 (Santa Cruz Biotechnology Inc.), 50 μM PTP1b inhibitor (Cayman), 1 mM PTP Inhibitor IV (Santa Cruz Biotechnology Inc.), 1 μM TSC401, 300 nM UNC2371 (SelleckChem), 300 nM BMS777607 (SelleckChem), 300 nM LDC1267 (SelleckChem) 1.5 μg/ml recombinant Pros1 (R&D systems), 200 ng/ml recombinant Gas6 (R&D systems) or 10-500 μM Cisplatin (Tocris). All components were added as described in the text. Cell culture. B16F10 (CRL-6475, ATCC), Lewis lung carcinoma (LLC) (CRL-1642, ATCC), KPC2713 (Yuliya Pylayeva-Gupta laboratory, UNC) and MDA-MB-231 (HTB-26, ATCC) were cultured in DMEM high glucose supplemented with 10% FBS, 1% penicillin-streptomycin (Gibco). […]

[2] = tested on: MyD88 protein in macrophages; assay: Immunofluorescent staining of M1 macrophages cultured in B16F10 conditioned medium; conditions: 24 hours
Method: Immunofluorescence staining and quantitation. After treatments, mouse macrophages were fixed with 4% formaldehyde (Electron Microscopy Sciences) and permeabilized with acetone (Fisher scientific). Samples were blocked using BlockAid blocking solution (Thermofisher scientific), were incubated with primary antibodies to MyD88 (Cell signaling), CD86 (Biolegend) and total STAT1 (Cell signaling) and Alexa Fluor 488-labeled secondary antibody (LifeTech) and were mounted with SlowFade Gold Antifade Mountant with DAPI (Invitrogen). Images were taken with using a BZ-X810 all-in-one fluorescence microscope (Keyence). Fluorescence intensity was measured with BZ-X800 software while colocalization was analyzed using ImageJ software with JACoP plugin (NIH)

[3] = tested on: macrophage pro-inflammatory gene expression; assay: DAMP characterization assay: nutrient deprived tumor cell conditioned medium on macrophages; conditions: BVT948 5 μM, 24 hours
Method: DAMP characterization assay. B16F10 or GEMM6 cells were resuspended in DMEM deficient media with 1% penicillin-streptomycin (Gibco) and incubated for 3 days. Conditioned media was collected, filtered with a 0.2 μm filter and incubated with 0.35 U/ml proteinase K-agarose beads (Sigma Millipore) or 40 U/ml of benzonase endonuclease (Sigma Millipore) for 4 hours at 37° C. under rotation. Conditioned media was two-fold diluted with DMEM/F12 with 10% FBS, 1% penicillin-streptomycin (Gibco) and 20 ng/ml of M-CSF (Prospec), supplemented with 5 μM BVT948 (Sigma Millipore) and added to primary mural macrophages for 24 hours.
qRT-PCR. RNA was isolated using the RNeasy Plus Mini Kit (Quiagen) and cDNA was prepared using the Reverse Transcription System (Promega) with one-hour reverse transcription process. qRT-PCR was done using the PowerUp™ SYBR™ Green Master Mix (Applied Biosystems) on a QuantStudio Pro Real-time PCR system (Applied Biosystems) with a 95° C. pretreatment of 10 min, 50 cycles of 95° C., 10 sec and 60° C., 1 min and melt curve at the end. Analysis was performed with the 2^−ΔΔCT method(136).

BVT948 was tested, and the “Stat1 phosphorylation at Tyrosine 701 and Serine 727” value [1] was “increased”, the “MyD88 protein level and localization” value [2] was “increased MyD88” and the “DAMP mediated macrophage activation (pro-inflammatory gene expression)” value ([3]; B16F10 nutrient deprivation conditioned medium) was “able to restore DAMP mediated macrophage activation”. The pro-inflammatory gene expression ([3]; GEMM6 nutrient deprivation conditioned medium) was “rescued pro-inflammatory gene expression”.
